# Laboratory results reported in patent publication US8476264B2, “N-(3-(2-amino-6,6-difluoro-4,4A,5,6,7,7A-hexahydro-cyclopenta[E][1,3]oxazin-4-yl)-phenylamides as BACE1 inhibitors” (Hoffmann-La Roche Inc., priority 2011, dated 2013).
# Target: T1, BACE1 (Homo sapiens, UniProt P56817)
# T1 construct: Human HEK293 cells which are stably transfected with a vector expressing a cDNA of the human APP wt gene (APP695); endogenous in cells; host or cells: HEK293 stably transfected with human APP695 wt
# Test: Cellular Aβ-lowering assay (Aβ40 ELISA)
# Assay type: cell-based
# Conditions: HEK293 cells stably expressing human APP wt (APP695); Aβ40 in supernatant after 18-20 hrs; read-out: BACE1 cell act. Aβ40 IC50
# Experimental: Cellular Aβ-Lowering Assay:
# Human HEK293 cells which are stably transfected with a vector expressing a cDNA of the human APP wt gene (APP695) were used to assess the potency of the compounds in a cellular assay. The cells were seeded in 96-well microtiter plates in cell culture medium (Iscove, plus 10% (v/v) fetal bovine serum, glutamine, penicillin/streptomycin) to about 80% confluence and the compounds were added at a 10× concentration in 1/10 volume of medium without FCS containing 8% DMSO (final concentration of DMSO was kept at 0.8% v/v). After 18-20 hrs incubation at 37° C. and 5% CO2 in a humidified incubator the culture supernatant was harvested for the determination of Aβ40 concentrations. 96 well ELISA plates (e.g., Nunc MaxiSorb) were coated with monoclonal antibody which specifically recognize the C-terminal end of Aβ40 (Brockhaus et al., NeuroReport 9, 1481-1486; 1998). After blocking of non-specific binding sites with e.g. 1% BSA and washing, the culture supernatants were added in suitable dilutions together with a horseradish peroxidase-coupled Aβ detection antibody (e.g., antibody 4G8, Senetek, Maryland Heights, Mo.) and incubated for 5 to 7 hrs. Subsequently the wells of the microtiter plate were washed extensively with Tris-buffered saline containing 0.05% Tween 20 and the assay was developed with tetramethylbenzidine/H2O2 in citric acid buffer. After stopping the reaction with one volume 1 N H2SO4 the reaction was measured in an ELISA reader at 450 nm wavelength. The concentrations of Aβ in the culture supernatants were calculated from a standard curve obtained with known amounts of pure Aβ peptide.
# T1 sequence (P56817 46-501): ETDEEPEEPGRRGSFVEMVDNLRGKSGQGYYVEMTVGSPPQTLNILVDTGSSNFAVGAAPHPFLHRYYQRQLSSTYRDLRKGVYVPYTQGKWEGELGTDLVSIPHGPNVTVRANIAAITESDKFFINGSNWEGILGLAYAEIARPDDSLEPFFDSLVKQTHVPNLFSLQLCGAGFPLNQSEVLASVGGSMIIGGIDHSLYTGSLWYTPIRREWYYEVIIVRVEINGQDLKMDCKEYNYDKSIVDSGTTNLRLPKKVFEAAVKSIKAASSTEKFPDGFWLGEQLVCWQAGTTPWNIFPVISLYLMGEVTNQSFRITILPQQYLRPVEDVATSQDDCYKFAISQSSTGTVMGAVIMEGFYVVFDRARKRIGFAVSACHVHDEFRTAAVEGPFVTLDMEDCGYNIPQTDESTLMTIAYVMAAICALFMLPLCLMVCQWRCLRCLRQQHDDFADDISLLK
row,SMILES,IC50
1,"NC1=N[C@](CF)(c2cc(NC(=O)c3cnc(C(F)(F)F)cn3)ccc2F)[C@H]2CC(F)(F)C[C@H]2O1 [Example 28, 5-Trifluoromethyl-pyrazine-2-carboxylic acid [(S)-3-((1R,2R)-2-amino-6,6-difluoro-4-fluoromethyl-4,4a,5,6,7,7a-hexahydro-cyclopenta[e][1,3]oxazin-4-yl)-4-fluoro-phenyl]-amide]",0.016 µM
2,"CC(F)(F)c1cnc(C(=O)Nc2ccc(F)c([C@@]3(CF)N=C(N)O[C@@H]4CC(F)(F)C[C@@H]43)c2)cn1 [Example 29, 5-(1,1-Difluoro-ethyl)-pyrazine-2-carboxylic acid [(S)-3-((1R,2R)-2-amino-6,6-difluoro-4-fluoromethyl-4,4a,5,6,7,7a-hexahydro-cyclopenta[e][1,3]oxazin-4-yl)-4-fluoro-phenyl]-amide]",0.036 µM
3,"COc1cnc(C(=O)Nc2ccc(F)c([C@@]3(CF)N=C(N)O[C@@H]4CC(F)(F)C[C@@H]43)c2)cn1 [Example 30, 5-Methoxy-pyrazine-2-carboxylic acid [(S)-3-((1R,2R)-2-amino-6,6-difluoro-4-fluoromethyl-4,4a,5,6,7,7a-hexahydro-cyclopenta[e][1,3]oxazin-4-yl)-4-fluoro-phenyl]-amide]",0.0076 µM
4,"NC1=N[C@](CF)(c2cc(NC(=O)c3ncc(C(F)(F)F)cn3)ccc2F)[C@H]2CC(F)(F)C[C@H]2O1 [Example 31, 5-Trifluoromethyl-pyrimidine-2-carboxylic acid [(S)-3-((1R,2R)-2-amino-6,6-difluoro-4-fluoromethyl-4,4a,5,6,7,7a-hexahydro-cyclopenta[e][1,3]oxazin-4-yl)-4-fluoro-phenyl]-amide]",0.036 µM
5,"NC1=N[C@](CF)(c2cc(NC(=O)c3ncc(Cl)cn3)ccc2F)[C@H]2CC(F)(F)C[C@H]2O1 [Example 32, 5-Chloro-pyrimidine-2-carboxylic acid [(S)-3-((1R,2R)-2-amino-6,6-difluoro-4-fluoromethyl-4,4a,5,6,7,7a-hexahydro-cyclopenta[e][1,3]oxazin-4-yl)-4-fluoro-phenyl]-amide]",0.0079 µM
6,"Cc1nc(C(=O)Nc2ccc(F)c([C@@]3(CF)N=C(N)O[C@@H]4CC(F)(F)C[C@@H]43)c2)co1 [Example 33, 2-Methyl-oxazole-4-carboxylic acid [(S)-3-((1R,2R)-2-amino-6,6-difluoro-4-fluoromethyl-4,4a,5,6,7,7a-hexahydro-cyclopenta[e][1,3]oxazin-4-yl)-4-fluoro-phenyl]-amide]",0.0048 µM
7,"NC1=N[C@](CF)(c2cc(NC(=O)c3nn(C(F)F)cc3Cl)ccc2F)[C@H]2CC(F)(F)C[C@H]2O1 [Example 35, 4-Chloro-1-difluoromethyl-1H-pyrazole-3-carboxylic acid [(S)-3-((1R,2R)-2-amino-6,6-difluoro-4-fluoromethyl-4,4a,5,6,7,7a-hexahydro-cyclopenta[e][1,3]oxazin-4-yl)-4-fluoro-phenyl]-amide]",0.003 µM
8,"NC1=N[C@@](c2cc(NC(=O)c3ccc(Cl)cn3)ccc2F)(C(F)F)[C@H]2CC(F)(F)C[C@H]2O1 [Example 37, 5-Chloro-pyridine-2-carboxylic acid [(S)-3-((1R,2R)-2-amino-4-difluoromethyl-6,6-difluoro-4,4a,5,6,7,7a-hexahydro-cyclopenta[e][1,3]oxazin-4-yl)-4-fluoro-phenyl]-amide]",0.017 µM
9,"NC1=N[C@@](c2cc(NC(=O)c3cnc(OCF)cn3)ccc2F)(C(F)F)[C@H]2CC(F)(F)C[C@H]2O1 [Example 38, 5-Fluoromethoxy-pyrazine-2-carboxylic acid [(S)-3-((1R,2R)-2-amino-4-difluoromethyl-6,6-difluoro-4,4a,5,6,7,7a-hexahydro-cyclopenta[e][1,3]oxazin-4-yl)-4-fluoro-phenyl]-amide]",0.017 µM

# Further lines, results first:
row,IC50,SMILES
1,1.4 µM,"NC1=N[C@@](c2cc(NC(=O)c3cnc(Cl)cn3)ccc2F)(C(F)F)[C@H]2CC(F)(F)C[C@H]2O1 [Example 39, 5-Chloro-pyrazine-2-carboxylic acid [(S)-3-((1R,2R)-2-amino-4-difluoromethyl-6,6-difluoro-4,4a,5,6,7,7a-hexahydro-cyclopenta[e][1,3]oxazin-4-yl)-4-fluoro-phenyl]-amide]"
2,0.044 µM,"NC1=N[C@@](c2cc(NC(=O)c3cnc(C(F)F)cn3)ccc2F)(C(F)F)[C@H]2CC(F)(F)C[C@H]2O1 [Example 40, 5-Difluoromethyl-pyrazine-2-carboxylic acid [(S)-3-((1R,2R)-2-amino-4-difluoromethyl-6,6-difluoro-4,4a,5,6,7,7a-hexahydro-cyclopenta[e][1,3]oxazin-4-yl)-4-fluoro-phenyl]-amide]"
3,0.007 µM,"NC1=N[C@@](c2cc(NC(=O)c3cnc(OC(F)F)cn3)ccc2F)(C(F)F)[C@H]2CC(F)(F)C[C@H]2O1 [Example 41, 5-Difluoromethoxy-pyrazine-2-carboxylic acid [(S)-3-((1R,2R)-2-amino-4-difluoromethyl-6,6-difluoro-4,4a,5,6,7,7a-hexahydro-cyclopenta[e][1,3]oxazin-4-yl)-4-fluoro-phenyl]-amide]"
4,0.0055 µM,"NC1=N[C@@](c2cc(NC(=O)c3nn(C(F)F)cc3Cl)ccc2F)(C(F)F)[C@H]2CC(F)(F)C[C@H]2O1 [Example 43, 4-Chloro-1-difluoromethyl-1H-pyrazole-3-carboxylic acid [(S)-3-((1R,2R)-2-amino-4-difluoromethyl-6,6-difluoro-4,4a,5,6,7,7a-hexahydro-cyclopenta[e][1,3]oxazin-4-yl)-4-fluoro-phenyl]-amide]"
5,0.042 µM,"Cc1nc(C(=O)Nc2ccc(F)c([C@@]3(C(F)F)N=C(N)O[C@@H]4CC(F)(F)C[C@@H]43)c2)co1 [Example 44, 2-Methyl-oxazole-4-carboxylic acid [(S)-3-((1R,2R)-2-amino-4-difluoromethyl-6,6-difluoro-4,4a,5,6,7,7a-hexahydro-cyclopenta[e][1,3]oxazin-4-yl)-4-fluoro-phenyl]-amide]"
6,11.1 µM,"N#Cc1ccc(C(=O)Nc2ccc(F)c([C@]3(CF)N=C(N)O[C@@]4(CF)CC(F)(F)C[C@H]43)c2)nc1 [Example 45, 5-Cyano-pyridine-2-carboxylic acid [3-((1S,7aS)-2-(R)-amino-6,6-difluoro-4,7a-bis-fluoromethyl-4,4a,5,6,7,7a-hexahydro-cyclopenta[e][1,3]oxazin-4-yl)-4-fluoro-phenyl]-amide]"
7,0.027 µM,"N#Cc1ccc(C(=O)Nc2ccc(F)c([C@@]3(CF)N=C(N)O[C@]4(CF)CC(F)(F)C[C@@H]43)c2)nc1 [Example 46, 5-Cyano-pyridine-2-carboxylic acid [3-((1R,7aR)-2-(S)-amino-6,6-difluoro-4,7a-bis-fluoromethyl-4,4a,5,6,7,7a-hexahydro-cyclopenta[e][1,3]oxazin-4-yl)-4-fluoro-phenyl]-amide]"
8,0.085 µM,"NC1=N[C@](CF)(c2cc(NC(=O)c3ccc(Cl)cn3)ccc2F)[C@H]2CC(F)(F)C[C@@]2(CF)O1 [Example 47, 5-Chloro-pyridine-2-carboxylic acid [3-((1R,7aR)-2-(S)-amino-6,6-difluoro-4,7a-bis-fluoromethyl-4,4a,5,6,7,7a-hexahydro-cyclopenta[e][1,3]oxazin-4-yl)-4-fluoro-phenyl]-amide]"
